Experiments:
[1] = test system: antibodies in sera from SARS patients (sera 1a, 1b, 2, 6, 37, 62, London, SARS-yellow, SARS-green); type: binding, human; design: Binding of serum 6 to linear peptides of protein X1 of SARS-CoV Urbani / Binding of serum 37 to linear peptides of protein X1 of SARS-CoV Urbani / Binding of serum 6 to looped/cyclic peptide (PEPSCAN-ELISA) / Binding of serum 37 to looped/cyclic peptide (PEPSCAN-ELISA) / Binding of serum 37 to looped/cyclic peptides of protein X1 of SARS-CoV Urbani / Binding of serum 6 to linear peptides of protein X2 / Binding of serum 37 to linear peptides of protein X2 / Binding of serum 37 to looped/cyclic peptides of protein X2 of SARS-CoV Urbani / Binding of serum 6 to linear peptides of protein M of SARS-CoV Urbani / Binding of serum 37 to linear peptides of protein M of SARS-CoV Urbani / Binding of serum 6 to looped/cyclic peptides of protein M of SARS-CoV Urbani / Binding of serum 37 to looped/cyclic peptides of protein M of SARS-CoV Urbani / Binding of serum 6 to linear peptides of protein X3 of SARS-CoV Urbani / Binding of serum 37 to linear peptides of protein X3 of SARS-CoV Urbani / Binding of serum 37 to looped/cyclic peptides of protein X3 of SARS-CoV Urbani / Binding of serum 6 to linear peptides of protein X4 of SARS-CoV Urbani / Binding of serum 37 to linear peptides of protein X4 of SARS-CoV Urbani / Binding of serum 37 to looped/cyclic peptides of protein X4 of SARS-CoV Urbani / Binding of serum 6 to linear peptides of protein X5 of SARS-CoV Urbani / Binding of serum 37 to linear peptides of protein X5 of SARS-CoV Urbani / Binding of serum 37 to looped/cyclic peptides of protein X5 of SARS-CoV Urbani / Binding of serum 6 to linear peptides of protein N of SARS-CoV Urbani / Binding of serum 37 to linear peptides of protein N of SARS-CoV Urbani / Binding of serum 6 to linear peptide (PEPSCAN-ELISA) / Binding of serum 1a to looped/cyclic peptides of protein N of SARS-CoV Urbani / Binding of serum 1b to looped/cyclic peptides of protein N of SARS-CoV Urbani / Binding of serum 2 to looped/cyclic peptides of protein N of SARS-CoV Urbani / Binding of serum 6 to looped/cyclic peptides of protein N of SARS-CoV Urbani / Binding of serum 37 to looped/cyclic peptides of protein N of SARS-CoV Urbani / Binding of serum 62 to looped/cyclic peptides of protein N of SARS-CoV Urbani / Binding of serum London to looped/cyclic peptides of protein N of SARS-CoV Urbani / Binding of serum SARS-green to looped/cyclic peptides of protein N of SARS-CoV Urbani: unit not given here
[2] = test system: control sera (pooled serum of ten healthy LUMC hospital workers; commercial negative donor pooled serum from the Dutch bloodbank); type: binding, human; design: Binding of Control serum LUMC to linear peptides / Binding of Control serum Blood-bank to linear peptides / Binding of Control serum LUMC to looped peptides / Binding of Control Serum Blood-Bank to Looped peptides / Binding of Control serum LUMC to linear peptides of the protein M of SARS-CoV Urbani / Binding of Control serum Blood-bank to linear peptides of the protein M of SARS-CoV Urbani / Binding of Control serum LUMC to looped peptides of the protein M of SARS-CoV Urbani / Binding of Control Serum Blood-Bank to Looped peptides of the protein M of SARS-CoV Urbani: unit not given here
[3] = test system: rabbit serum obtained by immunizing a rabbit with the SARS-CoV strain Frankfurt 1; type: binding; design: Binding of a rabbit serum to linear peptides / Binding of a rabbit serum to looped peptides / Rabbit serum linear peptides / Rabbit serum looped peptides / Binding of a rabbit serum to linear peptides of protein N of SARS-CoV Urbani (Rabbit serum linear peptides) / Binding of a rabbit serum to looped/cyclic peptides of protein N of SARS-CoV Urbani (Rabbit serum looped peptides): unit not given here
[4] = test system: recombinant human anti-SARS-CoV antibody 03-018; type: binding; design: Binding of antibody 03-018 to linear peptides of the N protein of SARS-CoV Urbani / Binding of antibody 03-018 to looped/cyclic peptides of the N protein of SARS-CoV Urbani: unit not given here

| Sequence | Binding of serum 1a to looped/cyclic peptides of protein N of SARS-CoV Urbani [1] | Binding of serum 1b to looped/cyclic peptides of protein N of SARS-CoV Urbani [1] | Binding of serum 2 to looped/cyclic peptides of protein N of SARS-CoV Urbani [1] | Binding of serum 6 to looped/cyclic peptides of protein N of SARS-CoV Urbani [1] | Binding of serum 37 to looped/cyclic peptides of protein N of SARS-CoV Urbani [1] | Binding of serum 62 to looped/cyclic peptides of protein N of SARS-CoV Urbani [1] | Binding of serum London to looped/cyclic peptides of protein N of SARS-CoV Urbani [1] | Binding of serum SARS-green to looped/cyclic peptides of protein N of SARS-CoV Urbani [1] | Binding of serum SARS-yellow to looped/cyclic peptides of protein N of SARS-CoV Urbani [1] | Binding of Control Serum Blood-Bank to Looped peptides [2] | Binding of Control serum Blood-bank to linear peptides [2] | Binding of Control serum LUMC to linear peptides [2] | Binding of Control serum LUMC to looped peptides [2] | Binding of a rabbit serum to linear peptides of protein N of SARS-CoV Urbani (Rabbit serum linear peptides) [3] | Binding of a rabbit serum to looped/cyclic peptides of protein N of SARS-CoV Urbani (Rabbit serum looped peptides) [3] | Binding of antibody 03-018 to linear peptides of the N protein of SARS-CoV Urbani [4] | Binding of antibody 03-018 to looped/cyclic peptides of the N protein of SARS-CoV Urbani [4] | Binding of serum 1a to linear peptides of protein N of SARS-CoV Urbani [1] | Binding of serum 1b to linear peptides of protein N of SARS-CoV Urbani [1] | Binding of serum 2 to linear peptides of protein N of SARS-CoV Urbani [1] | further results |
| --- | --- | --- | --- | --- | --- | --- | --- | --- | --- | --- | --- | --- | --- | --- | --- | --- | --- | --- | --- | --- | --- |
| GFYAEGSRGGSQASS | 0.3 | 0.2 | 0.4 | 0.3 | 0.3 | 0.2 | 0.3 | 0.3 | 0.1 | 0.5 | 0.7 | 0.6 | 0.5 | 0.1 | 0.0 | 0.1 | 0.2 | – | – | – | Binding of serum 1a to linear peptide (PEPSCAN-ELISA) [1]: 0.3; Binding of serum 1b to linear peptide (PEPSCAN-ELISA) [1]: 0.1; Binding of serum 2 to linear peptide (PEPSCAN-ELISA) [1]: 0.2; Binding of serum 6 to linear peptide (PEPSCAN-ELISA) [1]: 0.4; Binding of serum 37 to linear peptide (PEPSCAN-ELISA) [1]: 0.7; Binding of serum 62 to linear peptide (PEPSCAN-ELISA) [1]: 0.5; Binding of serum London to linear peptide (PEPSCAN-ELISA) [1]: 0.4; Binding of serum SARS-green to linear peptide (PEPSCAN-ELISA) [1]: 0.1; Binding of serum SARS-yellow to linear peptide (PEPSCAN-ELISA) [1]: 0.4 |
| GALNTPKDHIGTRNP | 0.2 | 0.1 | 0.5 | 0.2 | 0.5 | 0.3 | 0.4 | 0.2 | 0.2 | 0.5 | 0.7 | 0.6 | 0.4 | 0.2 | 0.0 | 0.1 | 0.2 | 0.3 | 0.1 | 0.2 | Binding of serum 6 to linear peptides of protein N of SARS-CoV Urbani [1]: 0.2; Binding of serum 37 to linear peptides of protein N of SARS-CoV Urbani [1]: 0.7; Binding of serum 62 to linear peptides of protein N of SARS-CoV Urbani [1]: 0.7; Binding of serum London to linear peptides of protein N of SARS-CoV Urbani [1]: 0.5; Binding of serum SARS-green to linear peptides of protein N of SARS-CoV Urbani [1]: 0.4; Binding of serum SARS-yellow to linear peptides of protein N of SARS-CoV Urbani [1]: 0.7 |
| KKKKTDEAQPLPQRQ | 0.2 | 0.1 | 0.3 | 0.1 | 0.4 | 0.3 | 0.3 | 0.1 | 0.2 | – | – | – | – | 0.2 | 0.1 | 0.1 | 0.2 | 0.3 | 0.1 | 0.3 | Binding of serum 6 to linear peptides of protein N of SARS-CoV Urbani [1]: 0.3; Binding of serum 37 to linear peptides of protein N of SARS-CoV Urbani [1]: 0.7; Binding of serum 62 to linear peptides of protein N of SARS-CoV Urbani [1]: 0.7; Binding of serum London to linear peptides of protein N of SARS-CoV Urbani [1]: 0.8; Binding of serum SARS-green to linear peptides of protein N of SARS-CoV Urbani [1]: 0.6; Binding of serum SARS-yellow to linear peptides of protein N of SARS-CoV Urbani [1]: 0.9; Control Serum Blood-Bank Looped peptides [2]: 0.6; Control serum Blood-bank linear peptides [2]: 1.0; Control serum LUMC linear peptides [2]: 0.9; Control serum LUMC looped peptides [2]: 0.4 |
| HIGTRNPNNNAATVL | 0.6 | 0.5 | 0.9 | 0.6 | 1.2 | 1.3 | 0.7 | 0.9 | 0.8 | 1.2 | 0.9 | 0.9 | 1.2 | 0.1 | 0.7 | 0.1 | 0.3 | 0.3 | 0.2 | 0.4 | Binding of serum 6 to linear peptides of protein N of SARS-CoV Urbani [1]: 0.2; Binding of serum 37 to linear peptides of protein N of SARS-CoV Urbani [1]: 0.9; Binding of serum 62 to linear peptides of protein N of SARS-CoV Urbani [1]: 0.8; Binding of serum London to linear peptides of protein N of SARS-CoV Urbani [1]: 0.5; Binding of serum SARS-green to linear peptides of protein N of SARS-CoV Urbani [1]: 0.5; Binding of serum SARS-yellow to linear peptides of protein N of SARS-CoV Urbani [1]: 0.7 |

— patent US20070128217A1 (priority 2003, published 2007)
